Source: ChEMBL document CHEMBL1142082, “Oral versus intravenous flucytosine in patients with human immunodeficiency virus-associated cryptococcal meningitis” (Antimicrob Agents Chemother, 2007)

Key:
Homo sapiens [1] = test: Effect on hemoglobin level in intravenously dosed HIV associated cryptococcal meningitis patient relative to control; type: functional
Homo sapiens [2] = test: Effect on neutrophils level in orally dosed HIV associated cryptococcal meningitis patient relative to control; type: functional
Homo sapiens [3] = test: Effect on neutrophils level in intravenously dosed HIV associated cryptococcal meningitis patient relative to control; type: functional
Homo sapiens [4] = test: Effect on platelet count in orally dosed HIV associated cryptococcal meningitis patient relative to control; type: functional
Homo sapiens [5] = test: Effect on platelet count in intravenously dosed HIV associated cryptococcal meningitis patient relative to control; type: functional
Homo sapiens [6] = test: Effect on alanine transferase level in orally dosed HIV associated cryptococcal meningitis patient relative to control; type: functional
Homo sapiens [7] = test: Effect on alanine transferase level in intravenously dosed HIV associated cryptococcal meningitis patient relative to control; type: functional
Homo sapiens [8] = test: Effect on aspartate aminotransferase level in orally dosed HIV associated cryptococcal meningitis patient relative to control; type: functional
Homo sapiens [9] = test: Effect on aspartate aminotransferase level in intravenously dosed HIV associated cryptococcal meningitis patient relative to control; type: functional
Homo sapiens [10] = test: Effect on creatinine clearance in orally dosed HIV associated cryptococcal meningitis patient relative to control; type: functional
Homo sapiens [11] = test: Effect on creatinine clearance in intravenously dosed HIV associated cryptococcal meningitis patient relative to control; type: functional
[12] = Fungicidal activity in HIV associated Cryptococcal meningitis patient; type: functional, Cryptococcus
[13] = Fungicidal activity in orally dosed HIV associated cryptococcal meningitis patient; type: functional, Cryptococcus
[14] = Fungicidal activity in intravenously dosed HIV associated cryptococcal meningitis patient; type: functional, Cryptococcus
Homo sapiens [15] = test: Effect on hemoglobin level in orally dosed HIV associated cryptococcal meningitis patient after 2 weeks relative to baseline; type: functional
Homo sapiens [16] = test: Effect on hemoglobin level in intravenously dosed HIV associated cryptococcal meningitis patient after 2 weeks relative to baseline; type: functional
Homo sapiens [17] = test: Effect on neutrophils level in orally dosed HIV associated cryptococcal meningitis patient after 2 weeks relative to baseline; type: functional
Homo sapiens [18] = test: Effect on neutrophils level in intravenously dosed HIV associated cryptococcal meningitis patient after 2 weeks relative to baseline; type: functional
Homo sapiens [19] = test: Effect on platelet count in orally dosed HIV associated cryptococcal meningitis patient after 2 weeks relative to baseline; type: functional
Homo sapiens [20] = test: Effect on platelet count in intravenously dosed HIV associated cryptococcal meningitis patient after 2 weeks relative to baseline; type: functional
Homo sapiens [21] = test: Effect on alanine transferase level in orally dosed HIV associated cryptococcal meningitis patient after 2 weeks relative to baseline; type: functional
Homo sapiens [22] = test: Effect on alanine transferase level in intravenously dosed HIV associated cryptococcal meningitis patient after 2 weeks relative to baseline; type: functional
Homo sapiens [23] = test: Effect on aspartate aminotransferase level in orally dosed HIV associated cryptococcal meningitis patient after 2 weeks relative to baseline; type: functional
Homo sapiens [24] = test: Effect on aspartate aminotransferase level in intravenously dosed HIV associated cryptococcal meningitis patient after 2 weeks relative to baseline; type: functional
Homo sapiens [25] = test: Effect on hemoglobin level in orally dosed HIV associated cryptococcal meningitis patient relative to control; type: functional
Homo sapiens [26] = test: Effect on creatinine clearance in orally dosed HIV associated cryptococcal meningitis patient after 2 weeks relative to baseline; type: functional
Homo sapiens [27] = test: Effect on creatinine clearance in intravenously dosed HIV associated cryptococcal meningitis patient after 2 weeks relative to baseline; type: functional
[28] = Oral clearance in HIV associated cryptococcal meningitis patient; type: ADME, organism-based; conditions: human, in vivo
Homo sapiens [29] = test: Volume of distribution in orally dosed HIV associated cryptococcal meningitis patient normalized to weight; type: ADME, organism-based; conditions: in vivo, po
[30] = Clearance in intravenously dosed HIV associated cryptococcal meningitis patient; type: ADME, organism-based; conditions: human, in vivo, iv
[31] = Volume of distribution in intravenously dosed HIV associated cryptococcal meningitis patient normalized to weight; type: ADME, organism-based; conditions: human, in vivo, iv; read-out: Vdss
[32] = AUC in orally dosed HIV associated cryptococcal meningitis patient at 24 hrs; type: ADME, organism-based; set-up: time < 24 hr, route oral; conditions: human, plasma, po
[33] = AUC in intravenously dosed HIV associated cryptococcal meningitis patient at 24 hrs; type: ADME, organism-based; set-up: time < 24 hr, route intravenous; conditions: human, plasma, iv

In the case of `Nc1nc(=O)[nH]cc1F` [FLUCYTOSINE], the Activity (Homo sapiens [1]) was 11.2 g/dL, the Activity (Homo sapiens [2]) was 4.5 10^9/L and the Activity (Homo sapiens [3]) was 5.6 10^9/L. For the same molecule, the Activity (Homo sapiens [4]) was 263 10^9/L, the Activity (Homo sapiens [5]) was 249 10^9/L and the Activity (Homo sapiens [6]) was 43 U/L. For the same molecule, the Activity (Homo sapiens [7]) was 38 U/L, the Activity (Homo sapiens [8]) was 40 U/L and the Activity (Homo sapiens [9]) was 33 U/L. It also gave a Creatinine_CL (Homo sapiens [10]) of 75 mL/min, a Creatinine_CL (Homo sapiens [11]) of 74 mL/min and a log10cfu/day [12] of -0.46. The log10cfu/day [13] was -0.48, the log10cfu/day [14] was -0.43 and the Activity (Homo sapiens [15]) was 70%. It also gave an Activity (Homo sapiens [16]) of 78%, an Activity (Homo sapiens [17]) of 73% and an Activity (Homo sapiens [18]) of 59%. It also gave an Activity (Homo sapiens [19]) of 112%, an Activity (Homo sapiens [20]) of 83% and an Activity (Homo sapiens [21]) of 94%. It also gave an Activity (Homo sapiens [22]) of 86%, an Activity (Homo sapiens [23]) of 69% and an Activity (Homo sapiens [24]) of 100%. The Activity (Homo sapiens [25]) was 10.6 g/dL, the Activity (Homo sapiens [26]) was 83% and the Activity (Homo sapiens [27]) was 76%. For the same molecule, the CL/F [28] was 112 mL/min, the Vdss (Homo sapiens [29]) was 1.41 L/kg and the clearance [30] was 63.3 mL/min. For the same molecule, the Vd [31] was 0.94 L/kg, the AUC at 24 h [32] was 576 µg·h/mL and the AUC at 24 h [33] was 1290 µg·h/mL.
